This note sets out measurements from publication PMC10933344, “A lncRNA Dleu2-encoded peptide relieves autoimmunity by facilitating Smad3-mediated Treg induction” (EMBO Reports, 2024).

Data set [1] concerns naive CD4+ T cells. Nature of the data set: In vitro iTreg differentiation (Foxp3+ of CD4+ cells). Format: cell-based, mouse. The note with it: 10 μM, 72 h, n = 4. As for the experimental part: C57BL/6 mice were sacrificed, and their spleens and peripheral lymph nodes were removed and gently dissociated into single-cell suspensions. Naive T cells were isolated using the Mouse CD4 Naive T Cell Isolation Kit (BioLegend, Stem Cell, or Thermo Fisher Scientific). Flow cytometry verified that the purity (CD4^+CD25^−CD62L^hi) of the enriched subpopulation was typically higher than 95%. All T cells were cultured using RPMI-1640 medium (Gibco) supplemented with 10% heat-inactivated fetal bovine serum (Gibco), 2 mM L-glutamine (Gibco), 10,000 units/mL of penicillin, 10,000 µg/mL of streptomycin, and 25 µg/mL of Gibco Amphotericin B (Thermo Fisher Scientific), 10 mM HEPES (Gibco), 1 mM Sodium pyruvate, MEM Non-Essential Amino Acids (Life Technologies) and 55 μM β-mercaptoethanol (Gibco). 0.1 million naive CD4^+ T cells were activated with plate-coated anti-CD3 (2.5 μg/ml; BD Biosciences) and soluble anti-CD28 (2 μg/ml; BD Biosciences) antibodies. The Th1 cell differentiation condition included recombinant murine (rm)IL-12 (10 ng/ml, PeproTech) and anti-IL-4 (10 μg/ml, BioLegend). The Th17 cell differentiation condition included rmIL-6 (10 ng/ml, PeproTech), rmTGF-β1 (5 ng/ml, PeproTech), rmIL-23 (10 ng/ml, PeproTech), anti-IL-4 (5 μg/ml, BioLegend) and anti-IFN-γ (10 μg/ml, eBioscience). The inducible T regulatory cell (iTreg) differentiation condition included rmTGF-β (5 ng/ml, PeproTech). 0.1 million naive CD8^+ T cells were activated with plate-coated anti-CD3 (10 μg/ml; BD Biosciences) and plate-coated anti-CD28 (10 μg/ml; BD Biosciences) antibodies. The Tc17 cell differentiation condition included rmIL-6 (10 ng/ml, PeproTech), rmTGF-β1 (2 ng/ml, PeproTech), rmIL-23 (25 ng/ml, PeproTech), rmIL1-β (5 ng/ml, PeproTech), and anti-IFN-γ (10 μg/ml, eBioscience). The Tc1 cell differentiation condition included rmIL-2 (5 ng/ml, PeproTech) and rm IL-12 (1 ng/ml, PeproTech). Different concentrations of Dleu2-17aa and scrPEP (Genscript) were added to the T cell culture from the beginning unless specified. Cells were cultured in U-bottom 96-well plates for 72 h and detected by flow cytometry.
For in vitro mouse T cell differentiation, after 72 h of induction, cells were activated for 4–6 h at 37 °C with the Cell Stimulation Cocktail (Thermo Fisher Scientific) if intracellular cytokine staining is needed, surface markers were stained in FACS buffer (PBS containing 2% FBS) for 30 min at 4 °C protected from light. Cells were then fixed and permeabilized with the Foxp3 Staining Buffer Set (eBioscience) or BD Cytofix/Cytoperm (BD Biosciences) and were stained with fluorescent antibodies. After washing, stained cells were assayed with an LSRFortessa (BD) flow cytometer, and data were analyzed with FlowJo software. Single-cell suspensions from EAE mouse spleen or CNS (day 16 post-immunization) were derived through mechanical separation and passage through a 70-μm filter (Fisherbrand) and analyzed using similar steps. For flow cytometry, antibodies against CD4 (clone GK1.5, 1:200), CD62L (clone MEL-14, 1:200), CD44 (clone IM7, 1:200), CD25 (clone PC61.5, 1:200), IL-17A (clone eBio17B7, 1:200), IFN-γ (clone XMG1.2, 1:200), FoxP3 (clone FJK-16s, 1:200), CD184 (clone 2B11/CXCR4, 1:100), CD152 (clone BNI3 1:100) and CD357 (clone DTA-1 1:100) were from eBioscience, CD3 (clone 145-2C11, 1:200) was from Biolegend and TGFBI (1:100) were from proteintech. For Dleu2-17aa expression detection, C57BL/6 mice were sacrificed, and their spleens were removed and gently dissociated into single-cell suspensions. An Fc blocker was used to reduce potential nonspecific antibody staining caused by IgG. Surface staining was performed using monoclonal antibodies against CD45 (clone 30-F11), CD3 (clone 145-2C11), CD19 (clone SJ25C1), CD11c (clone N418), MHCII (clone M5/114.15.2), F4/80 (clone BM8) all at a dilution of 1:200 (from Biolengend) followed by fixation and permeabilization of the nuclear membrane BD Cytofix/Cytoperm (BD Biosciences). […]

In data set [2] the test system is spinal cord of EAE mice. Nature of the data set: Immunostaining of spinal cord sections of treated EAE mice. Format: in vivo, mouse. The text has this: We then analyzed the T cell subsets in the CNS of WT and KO mice after EAE induction to clarify the inflammatory responses. […] To investigate if Dleu2-17aa affects CNS pathology in EAE, we performed immunostaining of spinal cord sections on EAE mice treated with Dleu2-17aa or scrPEP. […] Neuronal staining was also unaffected by Dleu2-17aa, indicating no significant alterations in CNS inflammation.
DAPI Dleu2-17aa CD4 DAPI Dleu2-17aa Iba1 DAPI Dleu2-17aa GFAP DAPI Dleu2-17aa NeuN
Appendix Fig S7: Effects of Dleu2-17aa on CNS pathology.
Representative immunofluorescence images showing Dleu2-17aa and CD4+ T cells (CD4),
microglia (Iba1), astrocyte (GFAP), and neuron (NeuN) staining in spinal cords of WT and KO EAE […]

Data set [3] relates to Jurkat cells. Description: Uptake of FAM-labeled peptide, flow cytometry. Format: cell-based, human. The settings on record: 6-FAM conjugate, 10 μM, n = 3. As to the method:
(§1) Figure EV1 Dleu2-17aa enters CD4^+ T cells. (A) Representative histogram of Dleu2-17aa (10 μM) uptake in Jurkat and EL4 cell lines (n = 3). (B) Flow cytometry plots showing FAM-Dleu2-17aa^+ cells gated on CD4^+ T cells after treatment with increasing concentrations of FAM-Dleu2-17aa for 72 h (n = 3). (C) Histograms showing fluorescence intensity of FAM-Dleu2-17aa in CD4^+ T cells after treatment with increasing concentrations of FAM-Dleu2-17aa for 72 h. Gray filled: untreated control (n = 3). (D) Immunofluorescence imaging of FAM-Dleu2-17aa (10 μM) penetration by CD4^+ T cells isolated from WT mouse spleen (n = 3). Scale bars: 20 μm. Data information: n indicates biological replicate.
(§2) The mouse T cell line EL4 (TIB-39) cells and fibroblast cell line NIH/3T3 (CRL-1658) cells were cultured in high-glucose DMEM (Thermo Fisher Scientific) supplemented with 10% fetal bovine serum (FBS; Gibco). The human T cell line Jurkat (TIB-152) cells were cultured in RPMI 1640 medium (Thermo Fisher Scientific) supplemented with 10% FBS. All lines were maintained at 37 °C in a humidified 5% CO2 atmosphere.
On the technique in general: Flow cytometry measures light scatter and fluorescence of single cells or particles in a stream.

For data set [4], the system named is CD4+ T cells. Nature of the data set: Uptake of FAM-labeled peptide, flow cytometry. Format: cell-based. The settings on record: 6-FAM conjugate, 72 h, mouse CD4+ T cells, n = 3. As to the method:
as §1

The test system of data set [5] is CD4+ T cells. Description: Subcellular distribution by confocal immunofluorescence microscopy. Format: cell-based. The note with it: 6-FAM conjugate, 10 μM, 4 h, mouse CD4+ T cells, n = 3. As for the experimental part: as §1
Mouse CD4^+ T cells and EL4 cells were seeded on glass coverslips and incubated with FAM-Dleu2-17aa (10 µM) for 4 h. Cultured cells were washed three times in PBS and fixed with 4% PFA for 10 min at RT, then incubated in Blocking Buffer (1 × PBS/5% BSA/0.3% Triton X-100) for 1 h. After being washed in PBS and air drying, the coverslips were mounted with DAPI (1:1000; Thermo Fisher Scientific). Images were acquired with Leica TCS SP8 laser scanning confocal microscope.

The test system of data set [6] is EL4 cells. Description: Uptake of FAM-labeled peptide, flow cytometry. Format: cell-based, mouse. The note with it: 6-FAM conjugate, 10 μM, n = 3. As to the method:
as §1, §2

Where no end group is shown, it is not given here.

As for “MGRGALRRGRGRARRRGPRRGGTPG [DLEU2-25aa, 25 amino acid micropeptide of human DLEU2 transcripts]”, the “significance of CD4+Foxp3+ (%) vs PBS” value in data set [1] (two-tailed Student's t-test) is “✱✱ (**P<0.01)”. For the same sequence, the “effect on mouse iTreg cell differentiation” value in data set [1] (vs PBS) is “exhibited similar features in promoting mouse iTreg cell differentiation”.
For MLGRRARRRGRGRRRPA [Dleu2-17aa], in data set [2], the colocalization with astrocytes result is on record as “limited colocalization”, the colocalization with microglia entry was “some colocalization”, the colocalization with neurons result is given as “minimal colocalization” and the “presence in CD4+ T cells of spinal cord” value is listed as “expressed in all the CD4^+ T cell”. For the same sequence, in data set [3], the penetrating ability result is recorded as “capacity to penetrate into different types of T cells”. Further, the “penetration of the peptide” value in data set [4] (0-50 μM) is reported as “dose-dependent penetration”. Moreover, the “concentration of maximal penetration” value in data set [4] fell in the range of 25 to 50 µM. The subcellular distribution result in data set [5] is “predominantly localized in the nucleus”. Besides, the penetrating ability entry in data set [6] is given as “capacity to penetrate into different types of T cells”.
